Assays:
human recombinant HDAC6 = target: T1, human recombinant HDAC6 (Homo sapiens, UniProt Q9UBN7); assay: Fluorogenic HDAC enzyme inhibition assay (ZMAL substrate), HDAC6; assay type: biochemical
T1 construct: purchased BPS Bioscience Inc. 50006
T1 sequence (Q9UBN7 1-1215): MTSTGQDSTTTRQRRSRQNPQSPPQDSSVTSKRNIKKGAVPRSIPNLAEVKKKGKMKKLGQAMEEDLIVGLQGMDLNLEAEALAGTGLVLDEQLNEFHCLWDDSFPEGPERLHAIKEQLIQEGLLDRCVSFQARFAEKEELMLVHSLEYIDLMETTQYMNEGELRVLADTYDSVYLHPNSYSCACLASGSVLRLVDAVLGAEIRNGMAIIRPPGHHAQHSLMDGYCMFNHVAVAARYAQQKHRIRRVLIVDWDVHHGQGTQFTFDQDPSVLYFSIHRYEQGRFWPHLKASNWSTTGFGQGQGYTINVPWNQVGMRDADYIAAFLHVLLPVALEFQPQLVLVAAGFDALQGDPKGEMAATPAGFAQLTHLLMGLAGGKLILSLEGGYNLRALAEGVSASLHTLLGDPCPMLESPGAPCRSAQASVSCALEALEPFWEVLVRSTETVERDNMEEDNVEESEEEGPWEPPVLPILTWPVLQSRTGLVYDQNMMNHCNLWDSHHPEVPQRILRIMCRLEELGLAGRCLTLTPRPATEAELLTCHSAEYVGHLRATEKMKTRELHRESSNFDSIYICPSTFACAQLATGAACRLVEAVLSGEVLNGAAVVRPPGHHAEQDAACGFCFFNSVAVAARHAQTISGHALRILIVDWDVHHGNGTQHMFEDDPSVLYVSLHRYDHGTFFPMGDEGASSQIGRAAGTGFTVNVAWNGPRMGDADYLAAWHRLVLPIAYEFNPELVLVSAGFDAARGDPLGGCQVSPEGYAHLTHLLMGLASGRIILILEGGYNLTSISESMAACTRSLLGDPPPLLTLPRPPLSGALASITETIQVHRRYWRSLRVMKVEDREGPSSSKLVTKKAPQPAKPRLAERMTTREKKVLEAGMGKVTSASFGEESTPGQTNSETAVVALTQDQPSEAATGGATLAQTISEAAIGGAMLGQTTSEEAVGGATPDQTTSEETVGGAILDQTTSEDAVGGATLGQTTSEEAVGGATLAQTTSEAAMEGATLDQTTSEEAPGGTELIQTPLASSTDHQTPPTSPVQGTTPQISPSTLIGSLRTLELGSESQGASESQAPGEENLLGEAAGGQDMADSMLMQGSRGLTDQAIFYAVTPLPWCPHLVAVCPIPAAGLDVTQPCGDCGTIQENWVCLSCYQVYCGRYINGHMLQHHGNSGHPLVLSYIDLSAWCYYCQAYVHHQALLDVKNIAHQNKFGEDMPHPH
Protocol: First, predilutions (100-fold final assay concentration) of test compounds or reference inhibitors were prepared. To this end, 3-fold serial dilutions of the respective DMSO stock solutions were prepared in DMSO using clear V-bottom 96-well microplates (Greiner Bio-One, Greiner AG, Kremsmünster, Austria). Predilutions designated for photolysis were irradiated for 10 min using the UV reactor described above. […] Next, 5.0 µL of these serial dilutions in assay buffer were transferred into 96-well microplates (OptiPlate-96 Black, PerkinElmer, Waltham, MA, USA). […] Fluorescence (excitation: 355 nm, emission: 460 nm) was measured using a FLUOstar OPTIMA microplate reader (BMG LABTECH GmbH, Ortenberg, Germany). IC50 values were determined by generating normalized dose–response curves using the built-in “log(inhibitor) vs. response (three parameters)” equation provided by GraphPad Prism (GraphPad Prism 9.0, San Diego, CA, USA). All compounds were tested in duplicates; reported mean IC50 values, including standard deviation, were calculated from at least two independent experiments.

[1] = system: caspase 3/7 in A2780 cells; assay: Caspase-Glo 3/7 assay; assay type: cell-based, human; settings: A2780, 0.5 µM, 24 h
Protocol: A2780 cells (8000 cells/well) were seeded in white sterile 96-well plates (ThermoFisher Scientific, Waltham, MA, USA, #136102). Dilutions (500 µM) in DMSO were prepared from the respective stock solutions in DMSO (10 mM). Predilutions used for photolysis experiments were irradiated in clear U-bottom 96-well microplates (Greiner Bio-One, Greiner AG, Kremsmünster, Austria) for 10 min in the UV reactor described above. Vehicle control (DMSO) or compounds, at a concentration of 0.5 µM, were added to the cells. The cells were then incubated for 24 h under standard culture conditions. The final volume was 100 µL, and the final DMSO concentration was 0.1%. After 24 h, cells were subsequently incubated with Caspase-Glo 3/7 substrate (Promega, Madison, WI, USA, #G8091) for 1 h at 25 °C, according to the manufacturer´s protocol. Luminescence was detected at 25 °C using a Spark microplate reader (Tecan Group AG, Maennedorf, Swiss). Two independent experiments were performed in triplicates.
GraphPad Prism (GraphPad Software, San Diego, CA, USA) was used to perform statistical analysis. Normality of the data was assessed using Shapiro–Wilk’s and Kolmogorov–Smirnov tests. To determine statistical differences between means, a one-way analysis of variance (ANOVA) was performed. If the difference was significant (p < 0.05), the mean of each column was compared to the mean of the control and corrected for multiple comparisons using Dunnett’s post-hoc test. Differences were considered statistically significant at * p < 0.05, ** p < 0.01, *** p < 0.001.

IC50 (human recombinant HDAC6; without UV irradiation) [nM]	IC50 (human recombinant HDAC6; after UV irradiation (365 nm, 10 min)) [nM]	increase of HDAC6 inhibition upon irradiation with UV light (human recombinant HDAC6; irradiated vs non-irradiated) [fold]	Structure (SMILES)	activation of caspase 3/7 ([1]; without UV)	activation of caspase 3/7 ([1]; + UV (365 nm, 10 min))
13.1 ± 0.9			CN(C)c1ccc(C(=O)N(CC(=O)NCc2ccccc2)Cc2ccc(C(=O)NO)cc2)cc1 [I, N-[2-(benzylamino)-2-oxoethyl]-4-(dimethylamino)-N-[4-(hydroxycarbamoyl)-benzyl]-benzamide]	significant activation of caspase 3/7	
794 ± 74.7	21.6 ± 2.8	37	COc1cc(CONC(=O)c2ccc(CN(CC(=O)NCc3ccccc3)C(=O)c3ccc(N(C)C)cc3)cc2)c([N+](=O)[O-])cc1OC [pc-I, N-[2-(Benzylamino)-2-oxoethyl]-N-(4-{[(4,5-dimethoxy-2-nitrobenzyl)oxy]carbamoyl}benzyl)-4-(dimethylamino)benzamide]	inactive	significant activation of caspase 3/7

— paper PMC10056348, “Photocaged Histone Deacetylase Inhibitors as Prodrugs in Targeted Cancer Therapy” (Pharmaceuticals, 2023)
